In paper PMC4409382, “Structural Analysis of the 14-3-3ζ/Chibby Interaction Involved in Wnt/β-Catenin Signaling” (PLoS ONE, 2015):
Numbering of substitutions follows the chain as printed. Square brackets hold non-standard residues; d marks the D form. Peptide text beside a SMILES is read from it. pS = N[C@@H](COP(=O)(O)O)C(=O)O

How the values were obtained:
Format in all cases: binding
14-3-3ζ = target: T1, 14-3-3ζ (Homo sapiens, UniProt P63104); test: ITC of Cby peptides titrated into 14-3-3ζ; conditions: for n (binding stoichiometry of monomeric 14-3-3 and Cby peptide): 25°C; for T∆S / ∆G / ∆H / TΔS / ΔG / ΔH: 298.15 K; for T∆S / ∆G / ∆H: duplicate set (S1 Table); for TΔS / ΔG / ΔH: pH 6.8, Table 1 set of duplicate experiments; for Kd: 25°C (298.15 K)
T1 construct: Both full-length 14-3-3ζ and 14-3-3ζΔC12 were expressed as N-terminally His-tagged protein; His tag (TEV-cleavable) (N, cleaved yes); made in house; host or cells: Escherichia coli BL21 (DE3) pLysS
T1 sequence (P63104 1-245): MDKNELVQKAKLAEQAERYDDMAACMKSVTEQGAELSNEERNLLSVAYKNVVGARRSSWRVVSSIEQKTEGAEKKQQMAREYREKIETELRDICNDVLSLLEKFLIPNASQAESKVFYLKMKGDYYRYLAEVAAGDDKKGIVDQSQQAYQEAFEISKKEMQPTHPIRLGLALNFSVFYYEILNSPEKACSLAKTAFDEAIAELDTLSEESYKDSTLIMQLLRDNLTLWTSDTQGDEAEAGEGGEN
Excerpt: (§1) The human14-3-3ζ ORF purchased from GeneCopoeia was transferred into Gateway pDEST17 vector (Invitrogen). The 14-3-3ζΔC12, where the 12 C-terminal residues were deleted, was then generated from the full-length construct using QuikChange II Site-Directed Mutagenesis Kit (Strategene). Both full-length 14-3-3ζ and 14-3-3ζΔC12 were expressed as N-terminally His-tagged protein in Escherichia coli (E. coli) BL21 (DE3) pLysS in M9 medium. For unlabeled protein, protein expression was induced at an O.D.600 of 0.9 by adding 0.75 mM IPTG at 18°C for 24 h. The ^15N, ^13C, ^2H labeled 14-3-3ζΔC12 was produced by growing E. coli in deuterated M9 medium. Cells adapted to 70% D2O were used to inoculate a 1 L culture of M9 prepared in 100% D2O. Cells were grown at 37°C and overexpression was induced at an O.D.600 of 0.6 with 0.75 mM IPTG. After a 60-h induction at 18°C, the cells were harvested. All 14-3-3ζ constructs used in this study were purified from the crude lysate by affinity chromatography using Ni Sepharose Fast Flow beads (Amersham Biosciences). The tag was then cleaved by overnight incubation with His-tagged tobacco etch virus (TEV) protease at 25°C. The cleaved 14-3-3ζ, which retains an N-terminal glycine, was purified by passing the mixture through Ni Sepharose Fast Flow beads. The final yields for the 14-3-3ζ proteins were ~50 mg per L of M9 media (including deuterated media).
(§2) The Cby peptides used in this study were purchased from GenScript USA Inc. and the TUFTS University Core Facility. From GenScript USA Inc.: Cby 13-mer (NH2-^12KTPPRKSASLSNL^24-COOH), Cby S20D 13-mer (NH2-^12KTPPRKSADLSNL^24-COOH), Cby S20E 13-mer (NH2-^12KTPPRKSAELSNL^24-COOH), pCby 13-mer (NH2-^12KTPPRKSApSLSNL^24-COOH) and pCby 18-mer ((NH2-^12KTPPRKSApSLSNLHSLDR^29-COOH). From TUFTS: pCby 7-mer (Ac-^16RKSApSLS^22-NH2), pCby 11-mer (NH2-^12KTPPRKSApSLS^22-NH2), pCby S22P 7-mer (Ac-^16RKSApSLP^22-NH2), pCby S22P 13-mer (NH2-^12KTPPRKSApSLPNL^24-COOH) and pCby S22P 18-mer ([…]). Peptides were dissolved and dialyzed in 50 mM sodium phosphate, 100 mM NaCl at pH 6.8 for ITC and NMR experiments.
(§3) ITC experiments were performed on a VP-ITC instrument (MicroCal) at 25°C. The protein and peptide samples were dialyzed into a buffer containing 50 mM sodium phosphate, 100 mM NaCl, 1 mM DTT at pH 6.8 and degassed before the experiments. In a typical experiment, 5 μL aliquots of ~1–2 mM peptide were titrated stepwise into the 1.4 mL sample cell containing ~100–200 μM 14-3-3ζ. The association constant (Ka), molar binding stoichiometry (n) and the binding enthalpy (ΔH), entropy (ΔS) and Gibbs free energy (ΔG) were determined by fitting the binding isotherm to a one-site model with MicroCal Origin7 software. All ITC experiments were performed in duplicate. A duplicate set of thermodynamic derived binding parameters are found in S1 Table. Peptide and protein concentrations were determined from amino acid analysis (Amino Acid Analysis Facility, SickKids, Toronto, ON).

14-3-3ζΔC12 = target: T2, 14-3-3ζΔC12 (Homo sapiens, UniProt P63104); test: ITC of Cby peptides titrated into 14-3-3ζΔC12; conditions: 14-3-3ζΔC12 in ITC cell; for n (binding stoichiometry of monomeric 14-3-3 and Cby peptide): 25°C
T2 construct: The 14-3-3ζΔC12, where the 12 C-terminal residues were deleted, was then generated from the full-length construct; His tag (TEV-cleavable) (N, cleaved yes); made in house; host or cells: Escherichia coli BL21 (DE3) pLysS
T2 sequence (P63104 1-233 limits assumed): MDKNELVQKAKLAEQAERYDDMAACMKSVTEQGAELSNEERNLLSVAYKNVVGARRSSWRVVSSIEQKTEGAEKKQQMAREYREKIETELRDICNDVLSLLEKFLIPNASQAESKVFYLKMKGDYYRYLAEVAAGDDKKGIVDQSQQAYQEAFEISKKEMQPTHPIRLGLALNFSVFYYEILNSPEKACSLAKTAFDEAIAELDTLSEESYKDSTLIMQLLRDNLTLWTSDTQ
Excerpt: as §1, §2, §3

14-3-3ζ K49A = target: T3, 14-3-3ζ K49A (Homo sapiens, UniProt P63104, K49A); test: ITC of Cby peptides titrated into 14-3-3ζ K49A; conditions: for n (binding stoichiometry of monomeric 14-3-3 and Cby peptide) / TΔS / ΔG / ΔH / T∆S / ∆G / ∆H: 14-3-3ζ K49A in ITC cell; for n (binding stoichiometry of monomeric 14-3-3 and Cby peptide): 25°C, pH 6.8; for TΔS / ΔG / ΔH / T∆S / ∆G / ∆H: 298.15 K; for ΔΔG of binding, 14-3-3ζ K49A compared to WT 14-3-3ζ / effect of 14-3-3ζ K49A mutation on binding affinity (fold reduction): ITC; for ΔΔG of binding, 14-3-3ζ K49A compared to WT 14-3-3ζ: 18-mer peptides; for effect of 14-3-3ζ K49A mutation on binding affinity (fold reduction): versus WT 14-3-3ζ
T3 construct: His tag (TEV-cleavable) (N, cleaved yes); made in house
T3 sequence (P63104 1-245 K49A): T1 sequence (P63104 1-245) with K49A
Excerpt: In numerous crystal structures of 14-3-3 proteins in complex with phosphorylated S/T peptides, the conserved K49 (numbering refers to the ζ isoform) side-chain is observed forming a hydrogen bond with the phosphate group on pS/pT (illustrated in S3 Fig with an elucidated 14-3-3ζ/Raf1 structure). With Cby’s S22 side-chain juxtaposed between 14-3-3ζ residues K49 and R56, the K49 side-chain is sterically hindered from contacting pS20. As such, we speculated that the increases in binding affinity to 14-3-3ζ observed for the S22P mutant peptides might be the result of the favorable contacts between K49 and pS20 facilitated by the proline-induced conformational changes. To test this, a K49A mutation was introduced into 14-3-3ζ and ITC titrations were performed with 18-mer WT and S22P Cby peptides.
as §2, §3

[1] = 50 mM sodium phosphate, 100 mM NaCl, 1 mM DTT, pH 6.8, one-site model, Table 1 set of duplicate experiments
[2] = pH 6.8, duplicate set (S1 Table)
[3] = pH 6.8, Table 1 set of duplicate experiments
[4] = 298.15 K, Table 1 set of duplicate experiments
[5] = 298.15 K, duplicate set (S1 Table)
[6] = Table 1 set of duplicate experiments

n (binding stoichiometry of monomeric 14-3-3 and Cby peptide) (14-3-3ζ; [1])	n (binding stoichiometry of monomeric 14-3-3 and Cby peptide) (14-3-3ζ; [2])	T∆S (14-3-3ζ) [kcal/mol]	∆G (14-3-3ζ) [kcal/mol]	∆H (14-3-3ζ) [kcal/mol]	TΔS (14-3-3ζ) [kcal/mol]	ΔG (14-3-3ζ) [kcal/mol]	ΔH (14-3-3ζ) [kcal/mol]	n (binding stoichiometry of monomeric 14-3-3 and Cby peptide) (14-3-3ζΔC12; [3])	n (binding stoichiometry of monomeric 14-3-3 and Cby peptide) (14-3-3ζΔC12; [2])	TΔS (14-3-3ζΔC12; [4]) [kcal/mol]	ΔG (14-3-3ζΔC12; [4]) [kcal/mol]	ΔH (14-3-3ζΔC12; [4]) [kcal/mol]	T∆S (14-3-3ζΔC12; [5]) [kcal/mol]	∆G (14-3-3ζΔC12; [5]) [kcal/mol]	∆H (14-3-3ζΔC12; [5]) [kcal/mol]	n (binding stoichiometry of monomeric 14-3-3 and Cby peptide) (14-3-3ζ K49A; [6])	n (binding stoichiometry of monomeric 14-3-3 and Cby peptide) (14-3-3ζ K49A; duplicate set (S1 Table))	TΔS (14-3-3ζ K49A; [6]) [kcal/mol]	ΔG (14-3-3ζ K49A; [6]) [kcal/mol]	SMILES	other results
0.96	0.94	2.91	-7.24 ± 0.04	-4.33 ± 0.06	2.93	-7.28 ± 0.03	-4.35 ± 0.05	1.04	1.02	3.70	-7.05 ± 0.03	-3.35 ± 0.06	3.77	-6.92 ± 0.03	-3.15 ± 0.04	1.01	1.07	3.23	-7.39 ± 0.05	CC(C)C[C@H](NC(=O)[C@H](COP(=O)(O)O)NC(=O)[C@H](C)NC(=O)[C@H](CO)NC(=O)[C@H](CCCCN)NC(=O)[C@H](CCCNC(=N)N)NC(=O)[C@@H]1CCCN1C(=O)[C@@H]1CCCN1C(=O)[C@@H](NC(=O)[C@@H](N)CCCCN)[C@@H](C)O)C(=O)N[C@@H](CO)C(=O)N[C@@H](CC(N)=O)C(=O)N[C@@H](CC(C)C)C(=O)N[C@@H](Cc1c[nH]cn1)C(=O)N[C@@H](CO)C(=O)N[C@@H](CC(C)C)C(=O)N[C@@H](CC(=O)O)C(=O)N[C@@H](CCCNC(=N)N)C(=O)O [Cby 18-mer] (H-KTPPRKSA[pS]LSNLHSLDR-OH)	greater affinity compared to the Cby 7-mer (fold, in words) (14-3-3ζ): nine-fold; ΔH (14-3-3ζ K49A; [6]): -4.16 ± 0.05 kcal/mol; T∆S (14-3-3ζ K49A; duplicate set (S1 Table)): 3.41 kcal/mol; ∆G (14-3-3ζ K49A; duplicate set (S1 Table)): -7.17 ± 0.06 kcal/mol; ∆H (14-3-3ζ K49A; duplicate set (S1 Table)): -3.76 ± 0.07 kcal/mol; ΔΔG of binding, 14-3-3ζ K49A compared to WT 14-3-3ζ (14-3-3ζ K49A): ~ 0.1 kcal/mol; effect of 14-3-3ζ K49A mutation on binding affinity (fold reduction) (14-3-3ζ K49A): does not affect
1.00	1.07	4.07	-6.67 ± 0.02	-2.60 ± 0.03	3.97	-6.60 ± 0.02	-2.63 ± 0.02	0.99	1.06	4.50	-6.58 ± 0.04	-2.08 ± 0.03	4.52	-6.60 ± 0.02	-2.08 ± 0.03					CC(C)C[C@H](NC(=O)[C@H](CC(N)=O)NC(=O)[C@H](CO)NC(=O)[C@H](CC(C)C)NC(=O)[C@H](COP(=O)(O)O)NC(=O)[C@H](C)NC(=O)[C@H](CO)NC(=O)[C@H](CCCCN)NC(=O)[C@H](CCCNC(=N)N)NC(=O)[C@@H]1CCCN1C(=O)[C@@H]1CCCN1C(=O)[C@@H](NC(=O)[C@@H](N)CCCCN)[C@@H](C)O)C(=O)O [Cby 13-mer] (H-KTPPRKSA[pS]LSNL-OH)	Kd (14-3-3ζ; 50 mM sodium phosphate, 100 mM NaCl, 1 mM DTT, pH 6.8, duplicate set (S1 Table)): 12.8 ± 0.5 µM; Kd (14-3-3ζ; [1]): 14.5 ± 0.6 µM; Kd (14-3-3ζΔC12; 298.15 K, pH 6.8, duplicate set (S1 Table)): 14.5 ± 0.6 µM
1.05	1.08	0.79	-8.76 ± 0.02	-7.97 ± 0.01	0.76	-8.79 ± 0.02	-8.03 ± 0.02									1.07	0.97	0.67	-7.80 ± 0.06	CC(C)C[C@H](NC(=O)[C@H](CO)NC(=O)[C@H](Cc1c[nH]cn1)NC(=O)[C@H](CC(C)C)NC(=O)[C@H](CC(N)=O)NC(=O)[C@@H]1CCCN1C(=O)[C@H](CC(C)C)NC(=O)[C@H](COP(=O)(O)O)NC(=O)[C@H](C)NC(=O)[C@H](CO)NC(=O)[C@H](CCCCN)NC(=O)[C@H](CCCNC(=N)N)NC(=O)[C@@H]1CCCN1C(=O)[C@@H]1CCCN1C(=O)[C@@H](NC(=O)[C@@H](N)CCCCN)[C@@H](C)O)C(=O)N[C@@H](CC(=O)O)C(=O)N[C@@H](CCCNC(=N)N)C(=O)O [Cby 18-mer S22P] (H-KTPPRKSA[pS]LPNLHSLDR-OH)	fold tighter binding than the S22P 7-mer (14-3-3ζ): ~ 9 fold; ΔH (14-3-3ζ K49A; [6]): -7.13 ± 0.03 kcal/mol; T∆S (14-3-3ζ K49A; duplicate set (S1 Table)): 1.17 kcal/mol; ∆G (14-3-3ζ K49A; duplicate set (S1 Table)): -7.84 ± 0.03 kcal/mol; ∆H (14-3-3ζ K49A; duplicate set (S1 Table)): -6.67 ± 0.04 kcal/mol; ΔΔG of binding, 14-3-3ζ K49A compared to WT 14-3-3ζ (14-3-3ζ K49A): ~ 1.0 kcal/mol; effect of 14-3-3ζ K49A mutation on binding affinity (fold reduction) (14-3-3ζ K49A): ~ 5 fold
